According to patent US7238681B2, “2-Methylene-18,19-dinor-1α-hydroxy-homopregnacalciferol and its uses” (Wisconsin Alumni Research Foundation, priority 2004, dated 2007):
“Also recorded” adds a separate entry of the source.

What was measured:
Sprague-Dawley rats [1] = experiment: Intestinal calcium transport, everted gut sac method, in vitamin D-deficient rats; assay type: in vivo, rat
Description: (§1) Male, weanling Sprague-Dawley rats were placed on Diet 11 (0.47% Ca) diet+AEK for one week followed by Diet 11 (0.02% Ca)+AEK for 3 weeks. The rats were then switched to a diet containing 0.47% Ca for one week followed by two weeks on a diet containing 0.02% Ca. Dose administration began during the last week on 0.02% calcium diet. Four consecutive ip doses were given approximately 24 hours apart. Twenty-four hours after the last dose, blood was collected from the severed neck and the concentration of serum calcium determined as a measure of bone calcium mobilization. The first 10 cm of the intestine was also collected for intestinal calcium transport analysis using the everted gut sac method.

[2] = system: Human promyelocytic leukemia (HL60) cells; experiment: HL-60 differentiation (nitro blue tetrazolium reduction assay); assay type: cell-based; details: FIG. 2; for EC50: HL60 cells, four days
Description: The study drugs were dissolved in ethanol and the concentrations determined using UV spectrophotometry. Serial dilutions were prepared so that a range of drug concentrations could be tested without changing the final concentration of ethanol (≦0.2%) present in the cell cultures.
Human promyelocytic leukemia (HL60) cells were grown in RPMI-1640 medium containing 10% fetal bovine serum. The cells were incubated at 37° C. in the presence of 5% CO2.
HL60 cells were plated at 1.2×10^5 cells/ml. Eighteen hours after plating, cells in duplicate were treated with drug. Four days later, the cells were harvested and a nitro blue tetrazolium reduction assay was performed (Collins et al., 1979; J. Exp. Med. 149:969–974). The percentage of differentiated cells was determined by counting a total of 200 cells and recording the number that contained intracellular black-blue formazan deposits. Verification of differentiation to monocytic cells was determined by measuring phagocytic activity (data not shown).

Sprague-Dawley rats [3] = experiment: Bone calcium mobilization (serum calcium) in vitamin D-deficient rats; assay type: in vivo, rat; details: for bone calcium mobilization activity (serum calcium): vitamin D-deficient rats, low calcium diet (0.02%), four consecutive ip doses, FIG. 4
Description: as §1

[4] = system: 24-hydroxylase (24Ohase) gene promoter in ROS 17/2.8 (bone) cells; experiment: In vitro transcription assay (24-hydroxylase gene promoter, luciferase reporter); assay type: cell-based; details: FIG. 3; for EC50: ROS 17/2.8 cells, 16 hours after dosing, read-out: EC50, transcriptional activity in bone cells
Description: Transcription activity was measured in ROS 17/2.8 (bone) cells that were stably transfected with a 24-hydroxylase (24Ohase) gene promoter upstream of a luciferase reporter gene (Arbour et al., 1998). Cells were given a range of doses. Sixteen hours after dosing the cells were harvested and luciferase activities were measured using a luminometer. • RLU=relative luciferase units. Intestinal Calcium Transport and Bone Calcium Mobilization

[5] = target: T1, full-length recombinant rat vitamin D receptor (Rattus norvegicus, UniProt P13053); experiment: Vitamin D receptor binding, competition with [3H]-1,25(OH)2D3; details: FIG. 1
T1 construct: Full-length recombinant rat receptor was expressed in E. coli BL21 (DE3) Codon Plus RIL cells; histidine tag (C); made in house; host or cells: E. coli BL21 (DE3) Codon Plus RIL
T1 sequence (P13053 1-423): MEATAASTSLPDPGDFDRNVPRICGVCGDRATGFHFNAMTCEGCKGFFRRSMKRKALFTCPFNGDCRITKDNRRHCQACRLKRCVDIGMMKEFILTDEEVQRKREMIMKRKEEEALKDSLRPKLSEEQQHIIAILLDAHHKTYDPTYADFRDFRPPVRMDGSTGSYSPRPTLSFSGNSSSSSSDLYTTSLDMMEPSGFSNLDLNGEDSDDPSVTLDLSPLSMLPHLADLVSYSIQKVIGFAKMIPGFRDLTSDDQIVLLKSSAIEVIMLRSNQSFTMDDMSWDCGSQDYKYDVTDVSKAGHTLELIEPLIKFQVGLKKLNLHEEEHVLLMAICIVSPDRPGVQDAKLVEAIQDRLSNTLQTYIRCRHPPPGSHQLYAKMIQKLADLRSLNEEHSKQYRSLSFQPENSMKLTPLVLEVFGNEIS
Description: Full-length recombinant rat receptor was expressed in E. coli BL21 (DE3) Codon Plus RIL cells and purified to homogeneity using two different column chromatography systems. The first system was a nickel affinity resin that utilizes the C-terminal histidine tag on this protein. The protein that was eluted from this resin was further purified using ion exchange chromatography (S-Sepharose Fast Flow). Aliquots of the purified protein were quick frozen in liquid nitrogen and stored at −80° C. until use. For use in binding assays, the protein was diluted in TEDK50 (50 mM Tris, 1.5 mM EDTA, pH7.4, 5 mM DTT, 150 mM KCl) with 0.1% Chaps detergent. The receptor protein and ligand concentration were optimized such that no more than 20% of the added radiolabeled ligand was bound to the receptor.
Radiolabeled and unlabeled ligands were added to 100 mcl of the diluted protein at a final ethanol concentration of ≦10%, mixed and incubated overnight on ice to reach binding equilibrium. The following day, 100 mcl of hydroxylapatite slurry (50%) was added to each tube and mixed at 10-minute intervals for 30 minutes. The hydroxylapaptite was collected by centrifugation and then washed three times with Tris-EDTA buffer (50 mM Tris, 1.5 mM EDTA, pH 7.4) containing 0.5% Titron X-100. […] Total binding was determined from the tubes containing only radiolabeled ligand.

2-methylene-19-nor-1α-hydroxy-homopregnacalciferol [Compound 2MP, reference compound]
intestinal calcium transport (Sprague-Dawley rats [1]; 2340 pmol/day): significant increase

C=C1/C(=C\C=C2/CCC[C@]3(C)[C@@H]([C@H](C)CCCC(C)(C)O)CC[C@@H]23)C[C@@H](O)C[C@@H]1O [1,25(OH)2D3, 1α,25-dihydroxyvitamin D3, reference compound]
intestinal calcium transport (Sprague-Dawley rats [1]; 780 pmol/day): significant increase
EC50 [2]: 3.2 nM
bone calcium mobilization activity (serum calcium) (Sprague-Dawley rats [3]): increased serum calcium levels at all dosages
EC50 [4]: 3.2 nM

C=C1[C@H](O)CC(=C/C=C2\CCC[C@@H]3[C@@H](C(C)C)CC[C@@H]23)C[C@H]1O [18,19-dinor-2MP, 2-methylene-18,19-dinor-1α-hydroxy-homopregnacalciferol]
intestinal calcium transport (Sprague-Dawley rats [1]; 780 pmol/day): does not promote intestinal calcium transport
intestinal calcium transport (Sprague-Dawley rats [1]; 2340 pmol/day): does not promote intestinal calcium transport
intestinal calcium transport (Sprague-Dawley rats [1]; 7020 pmol/day): does not promote intestinal calcium transport
intestinal calcium transport activity (Sprague-Dawley rats [1]; vitamin D-deficient rats, low calcium diet (0.02%), four consecutive ip doses, FIG. 5): no measurable activity; also recorded: essentially devoid of intestinal calcium transport activity
potency on HL-60 cell differentiation compared with 1,25(OH)2D3 [2]: almost as potent as 1,25(OH)2D3
EC50 ([2]; Homo sapiens, HL-60, 96 h): 15 nM
Ki ([5]; full-length recombinant rat VDR): 0.22 nM
binding to the receptor as compared to the standard 1,25-(OH)2D3 ([5]; relative to 1,25-(OH)2D3): one-fifth as well
bone calcium mobilization (Sprague-Dawley rats [3]; 780 pmol/day for 4 consecutive days): did not result in mobilization of bone calcium
bone calcium mobilization (Sprague-Dawley rats [3]; 2340 pmol/day): without any substantial effect
bone calcium mobilization (Sprague-Dawley rats [3]; 7020 pmol/day): without any substantial effect
bone calcium mobilization activity (serum calcium) (Sprague-Dawley rats [3]): no measurable bone calcium mobilization activity; also recorded: little, if any, activity in mobilizing calcium from bone
transcriptional activity relative to 1α,25-dihydroxyvitamin D3 in bone cells [4]: one-tenth
EC50 [4]: 15 nM
